Values of other authors in US4749688A, “Use of neutral metalloendopeptidase inhibitors in the treatment of hypertension” (Schering Corporation, priority 1986, dated 1988).

Legend:
[1] = in vivo
[2] = target: peripheral ACE (Homo sapiens, UniProt P12821)
peripheral ACE, sequence (P12821 30-1306): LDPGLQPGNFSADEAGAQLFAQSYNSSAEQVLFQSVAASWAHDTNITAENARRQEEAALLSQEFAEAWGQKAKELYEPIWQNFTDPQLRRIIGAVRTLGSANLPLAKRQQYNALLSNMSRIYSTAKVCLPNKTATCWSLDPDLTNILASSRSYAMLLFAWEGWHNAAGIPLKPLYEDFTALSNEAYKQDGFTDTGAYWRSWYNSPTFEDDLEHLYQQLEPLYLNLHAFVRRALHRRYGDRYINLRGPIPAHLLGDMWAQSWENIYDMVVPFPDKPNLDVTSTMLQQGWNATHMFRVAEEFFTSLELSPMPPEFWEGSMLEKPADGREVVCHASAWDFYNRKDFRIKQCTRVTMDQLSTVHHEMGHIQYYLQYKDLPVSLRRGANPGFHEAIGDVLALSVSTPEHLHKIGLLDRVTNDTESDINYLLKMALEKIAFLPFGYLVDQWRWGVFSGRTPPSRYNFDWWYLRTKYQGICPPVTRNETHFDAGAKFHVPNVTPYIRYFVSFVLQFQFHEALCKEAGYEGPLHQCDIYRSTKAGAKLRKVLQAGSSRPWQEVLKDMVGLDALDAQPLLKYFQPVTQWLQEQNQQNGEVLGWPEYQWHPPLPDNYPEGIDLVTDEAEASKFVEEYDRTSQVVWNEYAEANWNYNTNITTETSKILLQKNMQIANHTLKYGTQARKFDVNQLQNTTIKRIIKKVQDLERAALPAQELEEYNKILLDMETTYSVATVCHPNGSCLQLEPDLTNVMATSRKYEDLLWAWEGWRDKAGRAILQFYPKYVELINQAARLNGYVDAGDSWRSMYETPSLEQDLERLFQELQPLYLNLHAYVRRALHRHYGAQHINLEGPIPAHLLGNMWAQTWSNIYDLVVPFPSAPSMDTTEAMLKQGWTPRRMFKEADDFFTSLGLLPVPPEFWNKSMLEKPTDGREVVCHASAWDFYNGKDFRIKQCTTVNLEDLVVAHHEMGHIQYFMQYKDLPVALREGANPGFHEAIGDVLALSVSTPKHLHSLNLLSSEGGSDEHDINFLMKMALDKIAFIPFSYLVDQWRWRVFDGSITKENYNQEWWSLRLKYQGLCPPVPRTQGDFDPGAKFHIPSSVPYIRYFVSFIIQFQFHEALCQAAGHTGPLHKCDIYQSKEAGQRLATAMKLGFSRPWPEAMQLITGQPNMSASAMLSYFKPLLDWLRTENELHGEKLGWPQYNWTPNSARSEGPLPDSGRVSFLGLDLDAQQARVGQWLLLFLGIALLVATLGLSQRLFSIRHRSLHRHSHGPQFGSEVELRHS

In the case of `O=C(O)CNC(=O)C(CS)Cc1ccccc1` (racemic) [thiorphan, N-[(R,S)-3-mercapto-2-benzylpropanoyl]-glycine], the blood pressure [1] is given as “not affected”, the heart rate [1] is given as “not affected” and the “inhibition of peripheral ACE” value [2] is given as “inhibit peripheral ACE”.
